Test: solubility by light scattering
Conditions: 20 mM HEPES, 150 mM NaCl, 2 mM CaCl2, pH 7.5, 10 nM to 1 mM, triplicates
Experimental: Foldamers were dissolved in a buffer consisting of 20 mM HEPES, 150 mM NaCl, 2 mM CaCl2, pH = 7.5 at 11 different concentrations from 10 nM to 1 mM. 100 μl samples in triplicates were pipetted into a 96-well ELISA plate and absorbance values were recorded by using FLUOstar OPTIMA plate reader at 650 nm wavelength.

NC(=O)[C@H](CCCCNC(=O)c1ccc2c(c1)C1(OC2=O)c2ccc(O)cc2Oc2cc(O)ccc21)NC(=O)CNC(=O)[C@H]1CCCC[C@@H]1NC(=O)C[C@H](Cc1c[nH]c2ccccc12)NC(=O)[C@H]1CCCC[C@@H]1NC(=O)[C@H]1CCCC[C@@H]1NC(=O)C[C@H](Cc1c[nH]c2ccccc12)NC(=O)[C@H]1CCCC[C@@H]1N [fWW]
concentration above which light scattering is increased (Fig. S2, absorbance at 650 nm): above 1 μM | concentration at which aggregation was observed (light scattering on 600 nm (text; method: absorbance at 650 nm)): 10 µM
